# Results: US9096595B2, “7-(heteroaryl-amino)-6,7,8,9-tetrahydropyrido[1,2-a]indol acetic acid derivatives and their use as prostaglandin D2 receptor modulators” (Actelion Pharmaceuticals Ltd, priority 2011, dated 2015)
# What was measured:
# [1] = target: T1, hCRTH2 receptor (Homo sapiens (Human), UniProt Q9Y5Y4); assay: Radioligand displacement assay in presence of human serum albumin (HSA); conditions: 3H-PGD2 2.5 nM, HEK293-hCRTH2 membrane fragments, Binding-Buffer-HSA with 0.5% human serum albumin instead of 0.1% BSA
# T1 sequence (Q9Y5Y4 whole entry, the tested form may be a part): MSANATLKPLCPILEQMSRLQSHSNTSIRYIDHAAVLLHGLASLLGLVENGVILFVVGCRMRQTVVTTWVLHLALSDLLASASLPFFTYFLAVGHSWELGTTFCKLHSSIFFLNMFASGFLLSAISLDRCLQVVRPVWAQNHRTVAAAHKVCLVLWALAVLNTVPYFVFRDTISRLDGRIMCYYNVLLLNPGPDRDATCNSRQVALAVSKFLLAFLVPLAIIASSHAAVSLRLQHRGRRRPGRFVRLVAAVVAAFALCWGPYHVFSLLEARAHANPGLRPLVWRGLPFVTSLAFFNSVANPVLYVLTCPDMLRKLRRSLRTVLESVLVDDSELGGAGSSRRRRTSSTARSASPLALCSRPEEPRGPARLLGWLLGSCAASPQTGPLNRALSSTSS
# Procedure: (§1) First, recombinant HEK293-hCRTH2 cells were detached from culture plates into 5 ml buffer A/plate (Buffer A: 5 mM Tris, 1 mM MgCl2-6H2O pH=7.4) using a rubber policeman. Cells were then transferred into centrifugation tubes and centrifuged for 5 min at 400 g. The cell pellet was resuspended in the same buffer and tubes were frozen at −80° C. Cells were thawed and membrane fragments were generated by homogenization using a polytron homogenizer (30 seconds). The membrane fragments were then centrifuged at 3000 g for 20 minutes and resuspended in buffer C (Buffer C: 75 mM Tris, 25 mM MgCl2, 250 mM Saccharose pH 7.4). Aliquots of membrane fragments were stored at −20° C.
# (§2) Binding assay was performed in a final assay volume of 250 μl. First, 25 μl of test compound, previously diluted in Binding-Buffer (Binding-Buffer: 50 mM Tris-Base, 100 mM NaCl, 1 mM EDTA, 0.1% BSA (protease free), 0.01% NaN3, 10 mM MnCl2 pH 7.0) was placed into each well. After addition of 75 μl Binding-Buffer, 50 μl of the radioligand ^3H-PGD2 (at 2.5 nM (220.000 dpm/well) from ANAWA ART0662) was added to each well. Binding assay was started by addition of 100 μl CRTH2 membrane fragments, reaching a final concentration of 20 μg/well. For non-specific binding, PGD2 was added to the reaction mixture to […] final concentration. This assay mix was incubated for 90 minutes at room temperature and then filtered through a GF/C filter 96-well plate which was pre-soaked for 3 hours in 0.5% polyethyleneimine (PEI). The filter-wells were washed three times with ice cold Binding-Buffer. Then, 40 μl of Microscint-40 (Packard) was added to each well and the retained radioactivity quantified in a Topcount (Packard).
# Radioligand displacement assay in presence of human serum albumin (HSA) was performed as described above, with following modifications. Binding-Buffer-HSA: Binding-buffer+0.5% Sigma Albumin from Human serum A1887 (instead of 0.1% BSA). A volume of 25 μl test compound, previously diluted in Binding-Buffer-HSA was placed into each well. After addition of 75 μl Binding-Buffer-HSA, 50 μl of ^3H-PGD2 (at 2.5 nM (220.000 dpm/well) from ANAWA ART0662) was added to each well. Remaining protocol was identical as described above.
# [2] = target: T1, hCRTH2 receptor; assay: hCRTH2 receptor membranes radioligand (3H-PGD2) displacement assay; conditions: 3H-PGD2 2.5 nM, HEK293-hCRTH2 membrane fragments, Binding-Buffer with 0.1% BSA
# Procedure: as §1, §2
IC50 [1] [nM],IC50 [2] [nM],SMILES
38,9,"CN(c1ncc(Cl)cn1)C1CCc2c(CC(=O)O)c3ccc(C(F)(F)F)cc3n2C1 (stereo not drawn) [Example 22, 2-(7-((5-chloropyrimidin-2-yl)(methyl)amino)-3-(trifluoromethyl)-6,7,8,9-tetrahydropyrido[1,2-a]indol-10-yl)acetic acid]"
11,5,"CN(c1ncc(F)cn1)C1CCc2c(CC(=O)O)c3ccc(C(F)(F)F)cc3n2C1 (stereo not drawn) [Example 24, 2-(7-((5-fluoropyrimidin-2-yl)(methyl)amino)-3-(trifluoromethyl)-6,7,8,9-tetrahydropyrido[1,2-a]indol-10-yl)acetic acid]"
13,5,"CN(c1nc2cc(F)ccc2o1)C1CCc2c(CC(=O)O)c3ccc(Cl)cc3n2C1 (stereo not drawn) [Example 31, 2-(3-chloro-7-((5-fluorobenzo[d]oxazol-2-yl)(methyl)amino)-6,7,8,9-tetrahydropyrido[1,2-a]indol-10-yl)acetic acid]"
304,9,"O=C(O)Cc1c2n(c3cc(F)ccc13)CC(Nc1ncc(F)cn1)CC2 (stereo not drawn) [Example 34, 2-(3-fluoro-7-((5-fluoropyrimidin-2-yl)amino)-6,7,8,9-tetrahydropyrido[1,2-a]indol-10-yl)acetic acid]"
465,65,"O=C(O)Cc1c2n(c3cc(Cl)ccc13)CC(Nc1ncc(F)cn1)CC2 (stereo not drawn) [Example 36, 2-(3-chloro-7-((5-fluoropyrimidin-2-yl)amino)-6,7,8,9-tetrahydropyrido[1,2-a]indol-10-yl)acetic acid]"
5,3,"CN(c1ncc2ccccc2n1)C1CCc2c(CC(=O)O)c3ccc(Cl)cc3n2C1 (stereo not drawn) [Example 39, 2-(3-chloro-7-(methyl(quinazolin-2-yl)amino)-6,7,8,9-tetrahydropyrido[1,2-a]indol-10-yl)acetic acid]"
4,5,"CN(c1ncc2cc(F)ccc2n1)C1CCc2c(CC(=O)O)c3ccc(Cl)cc3n2C1 (stereo not drawn) [Example 40, 2-(3-chloro-7-((6-fluoroquinazolin-2-yl)(methyl)amino)-6,7,8,9-tetrahydropyrido[1,2-a]indol-10-yl)acetic acid]"
37,1,"CN(c1ncc2ccc(F)cc2n1)C1CCc2c(CC(=O)O)c3ccc(Cl)cc3n2C1 (stereo not drawn) [Example 41, 2-(3-chloro-7-((7-fluoroquinazolin-2-yl)(methyl)amino)-6,7,8,9-tetrahydropyrido[1,2-a]indol-10-yl)acetic acid]"
12,2,"CN(c1cnc2cc(F)ccc2n1)C1CCc2c(CC(=O)O)c3ccc(Cl)cc3n2C1 (stereo not drawn) [Example 43, 2-(3-chloro-7-((6-fluoroquinoxalin-2-yl)(methyl)amino)-6,7,8,9-tetrahydropyrido[1,2-a]indol-10-yl)acetic acid]"
3,1,"CCN(c1ncc(F)cn1)C1CCc2c(CC(=O)O)c3ccc(Cl)cc3n2C1 (stereo not drawn) [Example 45, 2-(3-chloro-7-(ethyl(5-fluoropyrimidin-2-yl)amino)-6,7,8,9-tetrahydropyrido[1,2-a]indol-10-yl)acetic acid]"
69,0.8,"COCCN(c1ncc(F)cn1)C1CCc2c(CC(=O)O)c3ccc(Cl)cc3n2C1 (stereo not drawn) [Example 47, 2-(3-chloro-7-((5-fluoropyrimidin-2-yl)(2-methoxyethyl)amino)-6,7,8,9-tetrahydropyrido[1,2-a]indol-10-yl)acetic acid]"
6,2,"CC(C)CN(c1nc2cc(F)ccc2o1)C1CCc2c(CC(=O)O)c3ccc(Cl)cc3n2C1 (stereo not drawn) [Example 48, 2-(3-chloro-7-((5-fluorobenzo[d]oxazol-2-yl)(isobutyl)amino)-6,7,8,9-tetrahydropyrido[1,2-a]indol-10-yl)acetic acid]"

# Second part, the compound before the results:
SMILES,IC50 [1] [nM],IC50 [2] [nM]
"CN(c1nc2ccc(F)cc2o1)C1CCc2c(CC(=O)O)c3ccc(F)cc3n2C1 (stereo not drawn) [Example 20, 2-(3-fluoro-7-((6-fluorobenzo[d]oxazol-2-yl)(methyl)amino)-6,7,8,9-tetrahydropyrido[1,2-a]indol-10-yl)acetic acid]",20,1
"CN(c1ncc(Cl)cn1)C1CCc2c(CC(=O)O)c3ccc(Cl)cc3n2C1 (stereo not drawn) [Example 21, 2-(3-chloro-7-((5-chloropyrimidin-2-yl)(methyl)amino)-6,7,8,9-tetrahydropyrido[1,2-a]indol-10-yl)acetic acid]",31,7
"CN(c1nc2ccc(F)cc2s1)C1CCc2c(CC(=O)O)c3ccc(C(F)(F)F)cc3n2C1 (stereo not drawn) [Example 26, 2-(7-((6-fluorobenzo[d]thiazol-2-yl)(methyl)amino)-3-(trifluoromethyl)-6,7,8,9-tetrahydropyrido[1,2-a]indol-10-yl)acetic acid]",15,16
"CN(c1nc2cc(F)ccc2o1)C1CCc2c(CC(=O)O)c3ccc(C(F)(F)F)cc3n2C1 (stereo not drawn) [Example 28, 2-(7-((5-fluorobenzo[d]oxazol-2-yl)(methyl)amino)-3-(trifluoromethyl)-6,7,8,9-tetrahydropyrido[1,2-a]indol-10-yl)acetic acid]",20,8
"O=C(O)Cc1c2n(c3cc(F)ccc13)CC(Nc1nc3cc(F)ccc3o1)CC2 (stereo not drawn) [Example 35, 2-(3-fluoro-7-((5-fluorobenzo[d]oxazol-2-yl)amino)-6,7,8,9-tetrahydropyrido[1,2-a]indol-10-yl)acetic acid]",20,11
"O=C(O)Cc1c2n(c3cc(Cl)ccc13)CC(Nc1ncc(Cl)cn1)CC2 (stereo not drawn) [Example 37, 2-(3-chloro-7-((5-chloropyrimidin-2-yl)amino)-6,7,8,9-tetrahydropyrido[1,2-a]indol-10-yl)acetic acid]",385,27
"Cc1cnc(N(C)C2CCc3c(CC(=O)O)c4ccc(Cl)cc4n3C2)nc1 (stereo not drawn) [Example 38, 2-(3-chloro-7-(methyl(5-methylpyrimidin-2-yl)amino)-6,7,8,9-tetrahydropyrido[1,2-a]indol-10-yl)acetic acid]",246,2
"O=C(O)Cc1c2n(c3cc(Cl)ccc13)CC(N(CC(F)F)c1nc3cc(F)ccc3o1)CC2 (stereo not drawn) [Example 44, 2-(3-chloro-7-((2,2-difluoroethyl)(5-fluorobenzo[d]oxazol-2-yl)amino)-6,7,8,9-tetrahydropyrido[1,2-a]indol-10-yl)acetic acid]",6,3
"CC(C)N(c1nc2cc(F)ccc2o1)C1CCc2c(CC(=O)O)c3ccc(Cl)cc3n2C1 (stereo not drawn) [Example 46, 2-(3-chloro-7-((5-fluorobenzo[d]oxazol-2-yl)(isopropyl)amino)-6,7,8,9-tetrahydropyrido[1,2-a]indol-10-yl)acetic acid]",5,3
"CCCN(c1ncc(F)cn1)C1CCc2c(CC(=O)O)c3ccc(Cl)cc3n2C1 (stereo not drawn) [Example 49, 2-(3-chloro-7-((5-fluoropyrimidin-2-yl)(propyl)amino)-6,7,8,9-tetrahydropyrido[1,2-a]indol-10-yl)acetic acid]",21,1
"CCN(c1nc2cc(F)ccc2o1)C1CCc2c(CC(=O)O)c3ccc(Cl)cc3n2C1 (stereo not drawn) [Example 50, 2-(3-chloro-7-(ethyl(5-fluorobenzo[d]oxazol-2-yl)amino)-6,7,8,9-tetrahydropyrido[1,2-a]indol-10-yl)acetic acid]",9,1
"O=C(O)Cc1c2n(c3cc(Cl)ccc13)CC(N(CC1CC1)c1ncc(F)cn1)CC2 (stereo not drawn) [Example 51, 2-(3-chloro-7-((cyclopropylmethyl)(5-fluoropyrimidin-2-yl)amino)-6,7,8,9-tetrahydropyrido[1,2-a]indol-10-yl)acetic acid]",9,0.6
